Results published in PubChem BioAssay (NCI).
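Interpolation was linear, between the two tested concentrations surrounding the appropriate level; five concentrations were tested over 48 hours in 96-well plates. The concentration for 50% growth inhibition is given as GI50. TGI denotes the concentration required for complete inhibition of growth.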

How the values were obtained:
Experiment in all cases: NCI tumour cell line growth inhibition, 48 h
[1] = test system: NCI-H460 lung
[2] = test system: NCI-H23 lung
[3] = test system: ACHN renal
[4] = test system: NCI-H522 lung
[5] = test system: A549 NSCLC
[6] = test system: HCT-116 colon
[7] = test system: HT29 colon
[8] = test system: K-562 leukemia
[9] = test system: EKVX NSCLC
[10] = test system: NCI-H226 lung

Compound	GI50 [1] [µM]	TGI [1] [µM]	GI50 [2] [µM]	TGI [2] [µM]	GI50 [3] [µM]	TGI [3] [µM]	GI50 [4] [µM]	TGI [4] [µM]	GI50 [5] [µM]	TGI [5] [µM]	GI50 [6] [µM]	TGI [6] [µM]	GI50 [7] [µM]	TGI [7] [µM]	GI50 [8] [µM]	TGI [8] [µM]	GI50 [9] [µM]	TGI [9] [µM]	GI50 [10] [µM]	TGI [10] [µM]
CCC[CH2][Sn]1([CH2]CCC)[O]C(=O)C[S]1	4.09	16.9	1.28	2.64	1.64	3.04	0.212	0.814	8.9	23.5	1.91	4.49	2.83	8.2	0.405	3.59	2.46	6.53	1.93	3.77
COc1cc(C(=O)/C=C/c2c(-c3ccc(F)cc3)nc3sccn23)cc(OC)c1OC	1.95	4.51	2.43	10.6	2.99	13.2	4.2	> 26.2	2.54	> 21.1	2.31	8.75	2.53	6.11	1.85	6.64	3.03	> 100	2.09	9.99
CC(C)C(/C=C/c1ccccc1)=N\NC(=O)N/N=C(/C=C/c1ccccc1)C(C)C		33.4		> 100		> 100		58.6		> 100		45		> 100		> 100		45.8		55.4
C/C1=C\CC[C@@](C)(O)[C@H]2C[C@H](CC/C(C)=C/CC1)C1(CC1)C(=O)O2	19.6	45.7	38	> 100	16.8	31.3	23.1	62.9	17.4	32.3	18.1	32.2	36.6	> 100	13.2	29	37	> 100	21.2	46.5
Cc1sc2nc(-c3ccccn3)c(/C=N/N=C(N)N)n2c1C	13.6	36.2	6.37	15.3	7.29	14.8	5.18	13.3	12.6	45	4.09	9.74	5.68	> 17.4	> 51.5	> 100	8.63	19.8	5.74	15.5
CN(C)CCCNC(=O)c1cc2c3ccccc3[nH]c2c2ncccc12	6.37	38.6	14.6	29.2	5.23	68.2	14.5	37.7	14.1	> 100	9.46	49.2	10.3	50.4	27.6	> 100	15.3	85.4	19.9	> 100
NC1=CC(=O)C(=O)c2cccnc21	2.63	7.38	2.06	7.84	6.73	19.9	7.32	22.6	3.55	15.5	3	12.5	15.1	38.7	3.03	10.6	12.5	26.1	14.7	42.5
Cn1cc(-c2csc(-c3cn(CCN4CCOCC4)c4ccc(F)cc34)n2)c2cccnc21	3.39	> 100	2.47	7.89	2.82	12.9	2.11	6.63	3.18	17.5	3	10.2	2.85	17.7	2.94	10.3	2.52	26.6	1.86	5.51
Cc1cc[c-]cc1.Fc1c[c-]c(-c2ccccn2)c(F)c1.N#CCC[PH+](CCC#N)c1ccccc1.[Pt+2]	3.05	10.1	3.45	12.9	3.33	20.9	1.96	5.58	3.57	71.8	2.25	5.91	3.24	17.8	3.48	> 100	3.09	22.3	2.62	7.06
O=C1c2c(c3c4ccccc4n4c3c3c2c2ccccc2n3C/C=C\C4)C(=O)N1Cc1ccccc1		> 100		> 100		> 100		> 100		> 100		> 100		> 100		> 100		> 100		> 100
COc1ccc(-c2nnc3n(C)c(=O)c4ccccc4n23)cc1O	0.172	> 100	3.01	> 100	1.15	> 100	0.0827	1.98	2.29	> 100	0.161	> 50.3	3.94	43.6	0.135	> 100	14.1	> 100	16.9	> 100
